According to patent US7161016B1, “Cannabimimetic lipid amides as useful medications” (University of Connecticut, priority 1998, dated 2007):
Where two headings read alike, the source gives them in different places.

What was measured:
CB2 receptor = molecular target: T1, CB2 receptor (Mus musculus, UniProt P47936); assay: CB2 receptor binding assay ([3H]CP-55,940 displacement), without PMSF; settings: mouse spleen membranes
T1 construct: membranes were prepared from frozen mouse spleen; from tissue; host or cells: frozen mouse spleen membranes
Method: (§1) The treated membranes Were subsequently used in the binding assay described below. Approximately 30 μg of PMSF-treated membranes were incubated in silanized 96-well microtiter plate with TME containing 0.1% essentially fatty acid-free bovine serum albumin (BSA), 0.8 nM [^3H] […] The samples were filtered using Packard Filtermate 196 and Whatman GF/C filterplates and washed with wash buffer (TME) containing 0.5% BSA. Radioactivity was detected using MicroScint 20 scintillation cocktail added directly to the dried filterplates, and the filterplates were counted using a Packard Instruments Top-Count. Nonspecific binding was assessed using 100 nM CP-55,940. Data collected from three independent experiments performed with duplicate determinations was normalized between 100% and 0% specific binding for [^3H] CP-55,940, determined using buffer and 100 nM CP-55,940. The normalized data was analyzed using a 4-parameter nonlinear logistic equation to yield IC50 values.
For the CB2 receptor binding studies, membranes were prepared from frozen mouse spleen essentially according to the procedure of P. R. Dodd et al, A Rapid Method for Preparing Synaptosomes: Comparison with Alternative Procedures, Brain Res., 226, 107–118 (1981). Silanized centrifuge tubes were used throughout to minimize receptor loss due to adsorption. The CB2 binding assay was conducted in the same manner as for the CB1 binding assay except the assays were conducted without PMSF. […] The binding affinities (Ki) are expressed in nanomoles (nM).

CB1 cannabinoid receptor = molecular target: T2, CB1 cannabinoid receptor (Rattus norvegicus, UniProt P20272); assay: CB1 receptor binding assay ([3H]CP-55,940 displacement), with and without PMSF; settings: rat forebrain membranes
T2 construct: membranes were prepared from rat forebrain membranes; from tissue; host or cells: rat forebrain membranes
Method: It is known that the enzymatic action of anandamide amidase can be moderated or prevented in vitro by the inclusion of phenylmethanesulfonyl fluoride (PMSF). PMSF functions as a nonselective protease inhibitor. Thus the ligand binding determinations for the CB1 receptor were carried out in the presence and absence of PMSF, to obtain both CB1 receptor binding affinity and a relative measure of the analog's metabolic stability. The binding affinities (Ki) are expressed in nanomoles (nM).
For the CB1 receptor binding studies, membranes were prepared from rat forebrain membranes according to the procedure of P. R. Dodd et al, A Rapid Method for Preparing Synaptosomes: Comparison with Alternative Procedures, Brain Res., 107–118 (1981). The binding of the novel analogues to the CB1 cannabinoid receptor was assessed as described in W. A. Devane et al, Determination and Characterization of a Cannabinoid Receptor in a Rat Brain, Mol. Pharmacol., 34, 605–613 (1988) and A. Charalambous et al, 5′-azido Δ^8-THC: A Novel Photoaffinity Label for the Cannabinoid Receptor, J. Med. Chem., 35, 3076–3079 (1992) with the following changes. The above articles are incorporated by reference herein.
Membranes, previously frozen at −80° C., were thawed on ice. To the stirred suspension was added three volumes of 25 mM Tris-HCl buffer, 5 mM MgCl2 and 1 mM EDTA, pH 7.4 (TME) containing 150 μM PMSF (made fresh in 2-propanol as a 100 mM stock). The suspension was incubated at 4° C., and after 15 min a second addition of PMSF stock brought the concentration to 300 μM PMSF; then the mixture was incubated for another 15 min. At the end of the second 15-min incubation, the membranes were pelleted and washed three times with TME to remove un-reacted PMSF.
as §1
The CB1 ligand binding determinations in the absence of PMSF were performed in a similar manner to the above test, except without the use of PMSF.

[1] = PMSF-treated, read-out: KI (CB1), with PMSF
[2] = without PMSF (anandamide amidase active), read-out: KI (CB1), without PMSF

T1 sequence (P47936 whole entry): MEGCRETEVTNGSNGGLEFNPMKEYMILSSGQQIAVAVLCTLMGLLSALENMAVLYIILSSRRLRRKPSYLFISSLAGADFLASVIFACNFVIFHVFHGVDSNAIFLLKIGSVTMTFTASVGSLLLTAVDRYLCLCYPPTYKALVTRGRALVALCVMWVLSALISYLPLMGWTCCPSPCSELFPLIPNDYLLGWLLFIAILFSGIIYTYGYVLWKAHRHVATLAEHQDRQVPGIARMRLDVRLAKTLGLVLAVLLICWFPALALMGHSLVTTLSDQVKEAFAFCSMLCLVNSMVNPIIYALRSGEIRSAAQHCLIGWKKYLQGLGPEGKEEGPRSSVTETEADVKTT
T2 sequence (P20272 whole entry): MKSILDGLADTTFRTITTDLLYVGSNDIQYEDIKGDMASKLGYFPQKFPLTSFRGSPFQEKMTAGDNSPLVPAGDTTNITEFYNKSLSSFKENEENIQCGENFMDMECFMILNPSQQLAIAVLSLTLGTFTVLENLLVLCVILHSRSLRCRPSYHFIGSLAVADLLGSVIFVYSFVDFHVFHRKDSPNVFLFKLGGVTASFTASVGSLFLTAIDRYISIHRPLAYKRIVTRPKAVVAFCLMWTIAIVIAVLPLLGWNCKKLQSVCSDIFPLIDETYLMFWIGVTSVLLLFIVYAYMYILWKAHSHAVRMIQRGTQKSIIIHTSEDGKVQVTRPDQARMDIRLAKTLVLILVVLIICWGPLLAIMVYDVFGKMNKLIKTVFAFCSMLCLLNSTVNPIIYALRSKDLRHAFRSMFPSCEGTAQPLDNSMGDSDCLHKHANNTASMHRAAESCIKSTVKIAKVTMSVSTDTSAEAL

SMILES | Ki (CB2 receptor) [nM] | Ki (CB1 cannabinoid receptor; [1]) [nM] | Ki (CB1 cannabinoid receptor; [2]) [nM]
CCCCC/C=C\C/C=C\C/C=C\C/C=C\CCCC(=O)N[C@H](C)CN=[N+]=[N-] (racemic) [Analog 4, (R)-(+−)-Arachidonyl-1′-azido-2′-propylamide] | 1230 | 12.7 | 25.6
CCCCC/C=C\C/C=C\C/C=C\C/C=C\CCCC(=O)N[C@H](C)CF [Analog 1, N-(2-Fluoro-1R-(methylethyl)arachidonylamide)] | 785 | 1.18 | 10.1
CCCCC/C=C\C/C=C\C/C=C\C/C=C\CCCC(=O)N[C@@H](C)CF [Analog 2] | 1340 | 0.91 | 56.3
CCCCCC=CCC=CCC=CCC=CCCCC(=O)NCCCl [Analog 5, N-(2-Chloroethyl)arachidonylamide] | 195 | 5.29 | 3400
CCCCCC=CCC=CCC=CCC=CCCCC(=O)NCCCCl [Analog 6, N-(3-Chloropropyl)arachidonylamide] | 193 | 25.6 | 387
C=CCNC(=O)CCC/C=C\C/C=C\C/C=C\C/C=C\CCCCC [Analog 7, N-Allylarachidonylamide] | 226 | 9.91 | 2980
C#CCNC(=O)CCC/C=C\C/C=C\C/C=C\C/C=C\CCCCC [Analog 8, N-Propargylarachidonylamide] | 290 | 10.8 | 4900
CCCCCC=CCC=CCC=CCC=CCCCC(=O)NCC(F)(F)F [Analog 9, N-(2,2,2-Trifluroethyl) arachidonylamide] | 718 | 36.2 | 2380
CCCCC/C=C\C/C=C\C/C=C\C/C=C\CCCCNC(=O)CCO [Analog 10, N-(3-Hydroxypropionyl)arachidonylamine] | 3540 | 115 | 134
CCCCC/C=C\C/C=C\C/C=C\C/C=C\CCCCNC(=O)COC(C)=O [Analog 11, N-(2-Acetoxyacetyl)arachidonylamine] |  | 421 | 419
CCCCC/C=C\C/C=C\C/C=C\C/C=C\CCCCNC(=O)CO [Analog 12] |  | 20 | 23
